GI50 and TGI data for 36 compounds are collected here from PubChem BioAssay (NCI).

Broadly, the GI50 is the concentration that inhibits growth by half. The term TGI denotes the concentration giving total growth inhibition. A low value points to greater sensitivity of the cells.

“And” between values parts separate entries of the source, which are not always exact repeats. Identical values can stand only once.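 Following 48 hours of exposure in 96-well plates, responses at five concentrations were used to interpolate endpoints linearly. The concentration for 50% growth inhibition is given as GI50. TGI: concentration producing complete growth inhibition.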 Bounds are passed on as bounds.

The assay has as its system MDA-MB-468 breast. Nature of the assay: DTP human tumour cell line panel, 48 h.
For `C=C(C)[C@@H]1CC[C@]2(c3ncc(C)o3)CC[C@]3(C)[C@H](CC[C@@H]4[C@@](C)(CCC#N)[C@H](C(=C)C)CC[C@]43C)[C@@H]12`, the GI50 was 3 µM and the TGI turned out to be 12.9 µM.

With `CCOc1ccc2c(-c3ccnc(Nc4cccc(C(F)(F)F)c4)n3)cnn2n1`, the GI50 was 1.14 µM and the TGI was more than 25 µM.

For `CCc1nc2cc(/C=C/C(=O)NO)c(F)cc2c(=O)n1CCc1ccccc1`, the GI50 is 0.474 µM and the TGI worked out at 2.92 µM.

Regarding `CN1CCN(c2ccc3nc(-c4ccc5nc(-c6ccc(C(F)(F)F)cc6)[nH]c5c4)[nH]c3c2)CC1`, the GI50 is 1.85 µM and the TGI came to 3.65 µM.

Turning to `C[C@]1(O)CC(=O)[C@]2(O)C3=C(C=C[C@]2(O)C1)C(=O)c1c(O)cccc1C3=O`, the GI50 was 1.7 µM and the TGI turned out to be 3.87 µM.

Turning to `COc1ccc(-n2nc(C)c3c(Nc4ccc(NC(=O)Nc5cc(C(F)(F)F)ccc5F)cc4)ncnc32)cc1`, the GI50 is 2.48 µM and the total growth inhibition concentration (TGI) is 6.14 µM.

With `COc1ccc(/C=C2/CCOC2=O)cc1`, the GI50 is more than 100 µM and the TGI is more than 100 µM.

As to `COc1cc2c(C#N)n3c(c2cc1OC)C(=O)C(c1ccccc1)Oc1ccccc1-3` (configuration not stated), the GI50 was 4.68 µM and the TGI was more than 100 µM.

As for `COc1cc(C)c(N(C)C(=O)CN(C)C)cc1Nc1nc(Nc2cccc(F)c2C(N)=O)c2cc[nH]c2n1`, the GI50 was 14.5 µM and the TGI was more than 25 µM.

Take `COc1ccccc1NC(=O)N/C(N)=N/c1nc2ccccc2s1`: the GI50 was 0.299 µM and the TGI is more than 100 µM.

Consider `Cc1ccc2nc(NC(=O)CSC(=S)N3CCN(Cc4ccccc4)CC3)sc2c1`, for which the GI50 was more than 100 µM and the TGI was more than 100 µM.

Regarding `C=C(C)[C@@H]1CC[C@]2(C)[C@H](CC=C3[C@@H]4CC(C)(C)CC[C@]4(C(=O)OC)CC[C@]32C)[C@@]1(C)CC/C(N)=N/O`, the GI50 was 1.85 µM and the TGI is 5.06 µM.

With `N#C/C(=C/c1cccs1)c1cccs1`, the GI50 was 24.1 µM and the total growth inhibition concentration (TGI) was more than 100 µM.

Take `Cc1cc2cc(Oc3ccnc(Nc4cccc(CS(=O)(=O)NCCN(C)C)c4)n3)ccc2[nH]1`: the GI50 was 6.49 µM and the TGI is 21.3 µM.

Take `CN1CCN(c2ccc(NC3=C(Cl)C(=O)c4ncccc4C3=O)cc2C(F)(F)F)CC1`: the GI50 was 0.746 µM and the TGI came to 2.69 µM.

Consider `CCCCCCCCOC(=O)c1cc(O)c(O)c(O)c1`, for which the GI50 is 3.49 µM and the TGI was 16.7 µM.

For `CC(C)(C)c1ccc(NC(=O)c2cc(=O)c3ccccc3[nH]2)c(C(C)(C)C)c1O`, the GI50 is 7.87 µM and the TGI is 21.9 µM.

Consider `COc1cccc2c1C(=O)c1c(O)c3c(c(O)c1C2=O)C[C@@](O)(C(=O)COC(=O)c1cccnc1)C[C@@H]3OC1CC(N)C(O)C(C)O1` (some centres not stated), for which the GI50 is 0.136 µM and the total growth inhibition concentration (TGI) is 0.465 µM.

For `COc1ccc(OC)c(-c2cn3nc(-c4c[nH]c5ccc(Br)cc45)sc3n2)c1`, the GI50 was 2.94 µM and the TGI amounted to 8.41 µM.

In the case of `CCCCCCCCCCCCCCCC[N+](C)(C)C`, the GI50 is 0.118 µM and 0.328 µM; the TGI is 0.361 µM and 1.93 µM.

Turning to `O=c1cc(-c2ccccc2)oc2cc(OCc3cn(Cc4ccc(F)cc4)nn3)cc(O)c12`, the GI50 was 20 µM and the concentration for total growth inhibition (TGI) is more than 100 µM.

In the case of `CC(=O)OC1CC(C)c2c1ncnc2N1CCN(C(=O)OC(C)(C)C)CC1` (configuration not stated), the GI50 is 33.9 µM and the TGI was more than 100 µM.

Consider `CCCCCn1ncc(-c2c(O)c(O)cc3c(O)c(-c4c(C)cc5c(-c6cnn(CCCCC)n6)c(O)c(O)cc5c4O)c(C)cc23)n1`, for which the GI50 is 0.102 µM and the TGI is 3.76 µM.

Consider `COc1ccc(CNCCCN2C(=O)c3ccc4c5c(ccc(c35)C2=O)C(=O)N(CCCNCCCCNCCCN)C4=O)c(OC)c1OC`, for which the GI50 was 0.155 µM and the TGI came to 0.334 µM.

As to `COc1ncnc2c1ncn2C/C(Br)=C(\Br)CCl`, the GI50 was 1.56 µM and the TGI was determined as 3.29 µM.

For `CC(C)NCCCNC1=C(Cl)C(=O)c2ccccc2C1=O`, the GI50 is 2.85 µM and the TGI is 8.78 µM.

As for `COc1cc(/C=C\c2cc(/C=C\c3ccc(O)c(OC)c3)n(C(=O)Nc3ccc(C(F)(F)F)cc3)n2)ccc1O`, the GI50 was 2.3 µM and the TGI came to 6.25 µM.

Consider `CCCN(CCC)c1ccc(C=O)c(OC)c1`, for which the GI50 was 6.22 µM and the concentration for total growth inhibition (TGI) was determined as 63 µM.

With `CCN(CC)CCNc1ccc(CO)c2sc3ccccc3c(=O)c12`, the GI50 is 1.25 µM and the TGI came to 3.03 µM.

For `CCCCn1c(=O)c(/C=C/C(=O)/C=C/c2ccc(O)c(OC)c2)cc2ccc(Cl)cc21`, the GI50 was 1.46 µM and the TGI was determined as 4.37 µM.

Turning to `COc1ccc(S(=O)(=O)N2CCCCC2)cc1NC(=O)c1[nH]c(C)c2c1CCCCC2=O`, the GI50 was 0.468 µM and the TGI is 3.9 µM.

Consider `CN([N-]C(=O)CC(=O)[N-]N(C)C(=S)c1ccccc1)C(=S)c1ccccc1.[Cu+2]`, for which the GI50 is less than 0.01 µM and the TGI was 0.0386 µM.

Take `Cc1cc(C)c(S(=O)(=O)Oc2ccccc2[N+](=O)[O-])c(C)c1`: the GI50 was 1.48 µM and the TGI came out at 5.62 µM.

For the compound `COc1cccc2c1[C@H](OC)[C@]13O[C@@]1(C2=O)[C@H](O)[C@H](C)[C@@](O)(C(=O)[C@@H]1O[C@H]1C)[C@@H]3O`, the concentration for 50% growth inhibition (GI50) was 0.204 µM and the TGI worked out at 0.48 µM.

Consider `CCN(CCc1ccc(F)cc1)c1ccc(CO)c(Cl)c1`, for which the 50% growth inhibitory concentration (GI50) is 0.217 µM and the TGI came out at 0.724 µM.

In the case of `CC(=O)O[C@H]1CC[C@]2(C)[C@H]3C(=O)C=C4[C@@H]5C[C@](C)(C(=O)N6CCCNCC6)CC[C@]5(C)CC[C@@]4(C)[C@]3(C)CC[C@H]2C1(C)C`, the GI50 is 1.7 µM and the TGI stood at 3.56 µM.
